Assay results as given in BindingDB's records for doi:10.1016/j.bmc.2009.03.061 (Gsk, 2009).

Assays:
[1] = molecular target: cAMP-specific 3',5'-cyclic phosphodiesterase 4B (Homo sapiens, UniProt Q07343); experiment: Enzyme Inhibition Assay; conditions: pH 7.5; 23 °C
Experimental: (§1) Inhibition of PDE4 is measured using a luminescence-coupled assay system developed by Cambrex. This assay system couples the formation of AMP, derived from PDE4-catalyzyed hydrolysis of cAMP, to the formation of ATP. The ATP is then used as a substrate for Luciferase and results in light as a signal output. […] This assay is used in a quenched assay format, where PDE4 enzyme and cAMP substrate are added sequentially to a 384 well assay plate (Greiner784075) pre-stamped with compound at the desired concentration. The reaction is incubated at room temperature for 1 h, and then is quenched by the addition of enzyme stop solution and then the light signal is generated by the addition of detection reagent. […] For inhibition curves, compounds were diluted using a 3-fold serial dilution and tested at 11 concentrations. Curves were analysed as describe above using ActivityBase and XLfit , and results were expressed as pIC50 values.

[2] = molecular target: cAMP-specific 3',5'-cyclic phosphodiesterase 4D (Homo sapiens, UniProt Q08499); experiment: Enzyme Inhibition Assay; conditions: pH 7.5; 23 °C
Experimental: as §1

Chain of cAMP-specific 3',5'-cyclic phosphodiesterase 4D (Q08499 whole entry): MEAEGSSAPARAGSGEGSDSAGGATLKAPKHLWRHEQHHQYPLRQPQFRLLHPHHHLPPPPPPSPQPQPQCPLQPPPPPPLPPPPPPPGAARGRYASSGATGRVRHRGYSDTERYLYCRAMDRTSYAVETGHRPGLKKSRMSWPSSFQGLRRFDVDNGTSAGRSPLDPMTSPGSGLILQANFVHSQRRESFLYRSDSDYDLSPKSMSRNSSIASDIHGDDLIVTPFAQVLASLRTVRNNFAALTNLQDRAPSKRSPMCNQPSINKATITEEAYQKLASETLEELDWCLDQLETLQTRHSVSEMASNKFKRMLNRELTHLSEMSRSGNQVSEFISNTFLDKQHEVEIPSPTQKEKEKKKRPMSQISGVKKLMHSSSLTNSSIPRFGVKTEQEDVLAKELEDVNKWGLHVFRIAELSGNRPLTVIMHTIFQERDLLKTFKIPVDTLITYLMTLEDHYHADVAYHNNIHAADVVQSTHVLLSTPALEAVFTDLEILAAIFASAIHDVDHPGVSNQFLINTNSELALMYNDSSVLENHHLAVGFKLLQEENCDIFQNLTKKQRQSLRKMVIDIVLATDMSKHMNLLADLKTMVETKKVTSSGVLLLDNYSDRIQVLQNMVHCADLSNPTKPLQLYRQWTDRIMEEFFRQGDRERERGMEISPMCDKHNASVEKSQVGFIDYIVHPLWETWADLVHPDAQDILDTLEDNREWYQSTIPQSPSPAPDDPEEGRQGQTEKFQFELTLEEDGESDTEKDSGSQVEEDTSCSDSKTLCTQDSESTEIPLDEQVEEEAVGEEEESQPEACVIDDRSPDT
Chain of cAMP-specific 3',5'-cyclic phosphodiesterase 4B (Q07343 whole entry): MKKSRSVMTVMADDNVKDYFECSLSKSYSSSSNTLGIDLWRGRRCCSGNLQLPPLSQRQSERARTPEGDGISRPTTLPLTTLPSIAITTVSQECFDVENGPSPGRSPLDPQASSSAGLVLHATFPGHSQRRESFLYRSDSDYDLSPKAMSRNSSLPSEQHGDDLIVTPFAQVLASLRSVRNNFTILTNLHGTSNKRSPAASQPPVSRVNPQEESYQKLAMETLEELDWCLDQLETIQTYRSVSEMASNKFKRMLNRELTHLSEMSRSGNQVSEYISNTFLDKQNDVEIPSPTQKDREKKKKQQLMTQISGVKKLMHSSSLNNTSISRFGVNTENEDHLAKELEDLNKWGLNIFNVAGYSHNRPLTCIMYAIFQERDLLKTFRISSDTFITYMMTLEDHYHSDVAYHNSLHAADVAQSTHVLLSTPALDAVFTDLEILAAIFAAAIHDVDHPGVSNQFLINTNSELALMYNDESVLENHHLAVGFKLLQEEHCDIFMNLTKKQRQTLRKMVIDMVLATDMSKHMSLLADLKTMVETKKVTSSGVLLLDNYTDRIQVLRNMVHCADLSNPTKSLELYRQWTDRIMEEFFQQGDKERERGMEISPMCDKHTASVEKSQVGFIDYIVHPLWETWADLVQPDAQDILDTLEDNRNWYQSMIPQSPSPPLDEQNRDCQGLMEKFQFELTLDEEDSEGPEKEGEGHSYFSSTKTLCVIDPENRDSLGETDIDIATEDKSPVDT

SMILES | IC50 [1] [nM] | IC50 [2] [nM]
Cc1cccc(C)c1C(=O)C1CCCc2sc(NC(=O)c3ccccc3[N+](=O)[O-])c(C(N)=O)c21 (centres undefined) [tetrahydrobenzothiophene (THBT), 18] | 5010 | 2510
CCCC1CCc2c(sc(NC(=O)c3ccccc3[N+](=O)[O-])c2C(N)=O)C1 (centres undefined) [tetrahydrobenzothiophene (THBT), 24] | 100 | 2510
